Experimental data reported in patent US9580418B2, “Bicyclic aromatic carboxamide compounds useful as Pim kinase inhibitors” (Incyte Corporation, priority 2014, dated 2017).

Columns and labels:
[1] = molecular target: Pim-1 (Homo sapiens (Human), UniProt P11309); test: Pim-1 kinase assay (Pim enzyme assays, Example A); type: biochemical; settings: 1 mM ATP, BAD peptide substrate; read-out: PIM1 IC50
Procedure: (§1) Pim-1 and Pim-3 kinase assays-20 μL reactions were run in white 384 well polystyrene plates dotted with 0.8 μL compound/DMSO in the assay buffer (50 mM Tris, pH 7.5, 0.01% Tween-20, 5 mM mgCl2, 0.01% BSA, 5 mM DTT), containing 0.05 μM Biotin-labeled BAD peptide substrate (AnaSpec 62269), 1 mM ATP, and 2.5 pM (Pim-1, Invitrogen PV3503) or 1.25 pM (Pim-3, Millipore 14-738) enzyme for 1 h at 25° C. Reactions were stopped by addition of 10 μL STOP Buffer (150 mM Tris, pH=7.5, 150 mM NaCl, 75 mM EDTA, 0.01% Tween-20, 0.3% BSA,) supplemented with Phospho-Bad (Ser112) Antibody (Cell Signaling 9291) diluted 666-fold, and Streptavidin donor beads (PerkinElmer 6760002) along with Protein-A acceptor beads (PerkinElmer 6760137) at 15 μg/mL each. Supplementation of the STOP buffer with beads and stopping the reactions were done under reduced light. Prior to the stopping reactions STOP buffer with beads was preincubated for 1 h in the dark at room temperature. After stopping the reactions, plates were incubated for 1 h in the dark at room temperature before reading on a PHERAstar FS plate reader (BMG Labtech) under reduced light.

[2] = molecular target: Pim-2 (Homo sapiens (Human), UniProt Q9P1W9); test: Pim-2 kinase assay (Pim enzyme assays, Example A); type: biochemical; settings: 1 mM ATP, CREBtide peptide substrate; read-out: PIM2 IC50
Procedure: Pim-2 kinase assay-20 μL reactions were run in white 384 well polystyrene plates dotted with 0.8 μL compound/DMSO in the assay buffer (50 mM Tris, pH 7.5, 0.01% Tween-20, 5 mM mgCl2, 0.01% BSA, 5 mM DTT), containing 0.05 μM Fluorescein-labeled CREBtide peptide substrate (Invitrogen PV3508), 1 mM ATP, and 1 nM enzyme (Invitrogen PV3649) for 2 h at 25° C. Reactions were stopped by addition of 10 μL TR-FRET Dilution Buffer (Invitrogen PV3574) with 30 mM EDTA and 1.5 nM LanthaScreen Tb-CREB pSer133 antibody (Invitrogen PV3566). After 30 min. incubation at room temperature, plates were read on a PHERAstar FS plate reader (BMG Labtech).

[3] = molecular target: Pim-3 (Homo sapiens (Human), UniProt Q86V86); test: Pim-3 kinase assay (Pim enzyme assays, Example A); type: biochemical; settings: 1 mM ATP, BAD peptide substrate; read-out: PIM3 IC50
Procedure: as §1

[4] = tested on: pBAD in KMS.12.BM cells; test: Pim pBAD signaling assay in KMS.12.BM cells (Example B); type: cell-based; settings: Homo sapiens, 2.5 h incubation, pBAD ELISA
Procedure: KG-1A cells are purchased from ATCC (Manassas, Va.) and KMS.12.BM cells are purchased from NIBIO, JCRB cell bank (Tokyo, Japan) and maintained in the culture mediums recommended, RPMI, 10% FBS and IMDM 20% FBS (Mediatech, Manassas, Va.) respectively. To measure the pBAD inhibitory activity of the compounds, both cell lines are plated with the culture medium (1×10^6/well/100 μL for KG1A and 4×10^5 cells/well/in 100 μL for KMS12BM) into 96-well V bottom polypropylene plates (Matrix, Thermo Fisher, USA) and incubated 30 min. at 37° C. to normalize cell signaling from handling. Test compounds are added at an appropriate concentration range and further incubated for 2.5 h for KMS.12.BM cells and 4 h for KG1-A cells. Plates are centrifuged at 2000 RPM for 10 min. and supernatants aspirated. 100 μL lysis buffer with protease inhibitors (Cell Signaling Technologies, Danver, Mass., Sigma, St Louis Mo., EMD, USA) is added to the pellets, mixed well and set on ice for 30 min. Lysates are frozen overnight at −80° C. To measure the pBAD activity, a Cell Signaling ELISA kit (Cell Signaling Path Scan phosphor pBAD ELISA) is utilized. 50 μL of the lysate is tested per the ELISA protocol and the data analysis is performed by software on a SpectrMax5 plate reader (Molecular Devices, Sunnyvale, Calif.). IC50 determination is performed by fitting the curve of percent inhibition versus the log of the inhibitor concentration using the GraphPad Prism 5.0 software.

Chain of Pim-2 (Q9P1W9 whole entry): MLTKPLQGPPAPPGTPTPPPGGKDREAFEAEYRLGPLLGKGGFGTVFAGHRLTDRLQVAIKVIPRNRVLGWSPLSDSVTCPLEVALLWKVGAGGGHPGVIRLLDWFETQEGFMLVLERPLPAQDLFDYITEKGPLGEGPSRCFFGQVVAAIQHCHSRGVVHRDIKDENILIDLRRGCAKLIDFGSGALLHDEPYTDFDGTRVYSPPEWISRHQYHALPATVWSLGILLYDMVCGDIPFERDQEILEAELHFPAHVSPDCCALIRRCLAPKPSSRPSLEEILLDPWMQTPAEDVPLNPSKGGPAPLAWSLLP
Chain of Pim-1 (P11309 whole entry): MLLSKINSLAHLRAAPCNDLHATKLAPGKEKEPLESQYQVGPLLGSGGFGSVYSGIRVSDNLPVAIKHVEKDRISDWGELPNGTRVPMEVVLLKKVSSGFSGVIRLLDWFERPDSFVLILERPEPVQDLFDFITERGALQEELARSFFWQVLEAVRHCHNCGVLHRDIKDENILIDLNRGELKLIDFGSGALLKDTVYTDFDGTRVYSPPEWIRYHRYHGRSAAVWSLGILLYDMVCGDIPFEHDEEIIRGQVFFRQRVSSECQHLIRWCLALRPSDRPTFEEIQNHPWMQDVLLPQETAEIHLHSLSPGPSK

Row | Structure (SMILES) | IC50 [1] [µM] | IC50 [2] [µM] | IC50 [3] [µM] | IC50 [4] [µM]
1 | C[C@H]1CN(c2ccncc2NC(=O)c2ccc3ccc(N4CCC5(CCOCC5)CC4)cc3n2)C[C@@H](N)[C@@H]1O [Example 14, N-{4-[(3R,4R,5S)-3-Amino-4-hydroxy-5-methylpiperidin-1-yl]pyridin-3-yl}-7-(3-oxa-9-azaspiro[5.5]undec-9-yl)quinoline-2-carboxamide] | ≤ 0.01 | ≤ 0.1 | ≤ 0.01 | 0.05 to 0.25
2 | C[C@H]1CN(c2ccncc2NC(=O)c2ccc3ncc(N4CCOCC4)cc3n2)C[C@@H](N)[C@@H]1O [Example 8, N-{4-[(3R,4R,5S)-3-Amino-4-hydroxy-5-methylpiperidin-1-yl]pyridin-3-yl}-7-morpholin-4-yl-1,5-naphthyridine-2-carboxamide] | ≤ 0.01 | 0.1 to 1 | ≤ 0.01 | ≤ 0.05
3 | N#CC1CCN(c2cnc3ccc(C(=O)Nc4cnccc4N4C[C@@H](N)[C@H](O)[C@@H](C5CC5)C4)nc3c2)CC1 [Example 41, N-{4-[(3R,4R,5S)-3-Amino-5-cyclopropyl-4-hydroxypiperidin-1-yl]pyridin-3-yl}-7-(4-cyanopiperidin-1-yl)-1,5-naphthyridine-2-carboxamide] | 0.01 to 0.05 | 1 to 10 | 0.01 to 0.05 | 0.05 to 0.25
4 | C[C@H]1CN(c2ccncc2NC(=O)c2ccc3ccc(-c4cnn(C)c4)cc3n2)C[C@@H](N)[C@@H]1O [Example 43, N-{4-[(3R,4R,5S)-3-Amino-4-hydroxy-5-methylpiperidin-1-yl]pyridin-3-yl}-7-(1-methyl-1H-pyrazol-4-yl)quinoline-2-carboxamide] | ≤ 0.01 | ≤ 0.1 | ≤ 0.01 | ≤ 0.05
5 | C[C@@H]1C[C@H](N)CN(c2ccncc2NC(=O)c2ccc3ccc(-c4cnn(C)c4)cc3n2)C1 [Example 48, N-{4-[(3S,5R)-3-amino-5-methylpiperidin-1-yl]pyridin-3-yl}-7-(1-methyl-1H-pyrazol-4-yl)quinoline-2-carboxamide] | ≤ 0.01 | ≤ 0.1 | ≤ 0.01 | ≤ 0.05
6 | CCN1CCN(c2ccc3ccc(C(=O)Nc4cnccc4N4C[C@@H](N)[C@H](O)[C@@H](C)C4)nc3c2)CC1=O [Example 22, N-{4-[(3R,4R,5S)-3-Amino-4-hydroxy-5-methylpiperidin-1-yl]pyridin-3-yl}-7-(4-ethyl-3-oxopiperazin-1-yl)quinoline-2-carboxamide] | ≤ 0.01 | ≤ 0.1 | ≤ 0.01 | ≤ 0.05
7 | C[C@@H]1C[C@H](N)CN(c2ccncc2NC(=O)c2ccc3ccc(N4CCCC4)cc3n2)C1 [Example 31, N-{4-[(3S,5R)-3-Amino-5-methylpiperidin-1-yl]pyridin-3-yl}-7-pyrrolidin-1-ylquinoline-2-carboxamide] | ≤ 0.01 | 0.1 to 1 | ≤ 0.01 | 0.05 to 0.25
8 | CC(C)c1ccc2ccc(C(=O)Nc3cnccc3N3C[C@@H](N)[C@H](O)[C@@H](C)C3)nc2c1 [Example 10, N-{4-[(3R,4R,5S)-3-Amino-4-hydroxy-5-methylpiperidin-1-yl]pyridin-3-yl}-7-isopropylquinoline-2-carboxamide] | ≤ 0.01 | ≤ 0.1 | ≤ 0.01 | ≤ 0.05
9 | Cn1cc(-c2cnc3ccc(C(=O)Nc4cnccc4N4C[C@@H](N)[C@H](O)[C@@H](C5CC5)C4)nc3c2)cn1 [Example 39, N-{4-[(3R,4R,5S)-3-Amino-5-cyclopropyl-4-hydroxypiperidin-1-yl]pyridin-3-yl}-7-(1-methyl-1H-pyrazol-4-yl)-1,5-naphthyridine-2-carboxamide] | ≤ 0.01 | ≤ 0.1 | ≤ 0.01 | 0.05 to 0.25
10 | CCN1CCN(c2ccc3ccc(C(=O)Nc4cnccc4N4C[C@H](C)C[C@H](N)C4)nc3c2)CC1=O [Example 23, N-{4-[(3S,5R)-3-Amino-5-methylpiperidin-1-yl]pyridin-3-yl}-7-(4-ethyl-3-oxopiperazin-1-yl)quinoline-2-carboxamide] | ≤ 0.01 | ≤ 0.1 | ≤ 0.01 | ≤ 0.05
11 | CC(C)c1cnc2ccc(C(=O)Nc3cnccc3N3C[C@@H](N)[C@H](O)[C@@H](C)C3)nc2c1 [Example 6] | ≤ 0.01 | ≤ 0.1 | ≤ 0.01 | ≤ 0.05
12 | CCc1ccc2ccc(C(=O)Nc3cnccc3N3C[C@@H](N)[C@H](O)[C@@H](C)C3)nc2c1 [Example 9, N-{4-[(3R,4R,5S)-3-Amino-4-hydroxy-5-methylpiperidin-1-yl]pyridin-3-yl}-7-ethylquinoline-2-carboxamide] | ≤ 0.01 | 0.1 to 1 | ≤ 0.01 | ≤ 0.05
13 | COc1ccc(-c2cnc3ccc(C(=O)Nc4cnccc4N4C[C@@H](N)[C@H](O)[C@@H](C5CC5)C4)nc3c2)cn1 [Example 36, N-{4-[(3R,4R,5S)-3-Amino-5-cyclopropyl-4-hydroxypiperidin-1-yl]pyridin-3-yl}-7-(6-methoxypyridin-3-yl)-1,5-naphthyridine-2-carboxamide] | ≤ 0.01 | ≤ 0.1 | ≤ 0.01 | ≤ 0.05
14 | C[C@H]1CN(c2ccncc2NC(=O)c2ccc3ccc(N4CC(C)(C)C4)cc3n2)C[C@@H](N)[C@@H]1O [Example 32, N-{4-[(3R,4R,5S)-3-Amino-4-hydroxy-5-methylpiperidin-1-yl]pyridin-3-yl}-7-(3,3-dimethylazetidin-1-yl)quinoline-2-carboxamide] | ≤ 0.01 | 0.1 to 1 | ≤ 0.01 | –
15 | C[C@H]1CN(c2ccncc2NC(=O)c2ccc3ccc(N4CCC(C(F)(F)F)C4)cc3n2)C[C@@H](N)[C@@H]1O (stereo partly drawn) [Example 28, N-{4-[(3R,4R,5S)-3-Amino-4-hydroxy-5-methylpiperidin-1-yl]pyridin-3-yl}-7-[3-(trifluoromethyl)pyrrolidin-1-yl]quinoline-2-carboxamide] | ≤ 0.01 | 0.1 to 1 | ≤ 0.01 | –
16 | C[C@@H]1C[C@H](N)CN(c2ccncc2NC(=O)c2ccc3ccc(N4CCC(C(F)(F)F)C4)cc3n2)C1 (stereo partly drawn) [Example 29, N-{4-[(3S,5R)-3-Amino-5-methylpiperidin-1-yl]pyridin-3-yl}-7-[3-(trifluoromethyl)pyrrolidin-1-yl]quinoline-2-carboxamide] | ≤ 0.01 | 0.1 to 1 | ≤ 0.01 | –
17 | C[C@@H]1C[C@H](N)CN(c2ccncc2NC(=O)c2ccc3ccc(N4CC(C)(C)C4)cc3n2)C1 [Example 33, N-{4-[(3S,5R)-3-Amino-5-methylpiperidin-1-yl]pyridin-3-yl}-7-(3,3-dimethylazetidin-1-yl)quinoline-2-carboxamide] | ≤ 0.01 | 1 to 10 | ≤ 0.01 | –
18 | N[C@@H]1CN(c2ccncc2NC(=O)c2ccc3ncc(N4CCC5(CCOCC5)CC4)cc3n2)C[C@H](C2CC2)[C@H]1O [Example 40, N-{4-[(3R,4R,5S)-3-Amino-5-cyclopropyl-4-hydroxypiperidin-1-yl]pyridin-3-yl}-7-(3-oxa-9-azaspiro[5.5]undec-9-yl)-1,5-naphthyridine-2-carboxamide] | ≤ 0.01 | 0.1 to 1 | ≤ 0.01 | –
